Experimental data reported in patent publication US5414000A, “Antiviral pyrinyl substituted tetrahydropyrans” (Bristol-Myers Squibb Co., priority 1994, dated 1995).

How the values were obtained:
Assay type in all cases: cell-based
[1] = tested on: HSV-1 (herpes simplex virus type 1, strain Schooler); test: HSV-1 antiviral plaque reduction assay in WI-38 cell culture; details: Human alphaherpesvirus 1, 96 h; HSV-1 strain Schooler; WI-38 monolayers; at least 50% plaque reduction vs virus controls; 4 days at 37° C.; read-out: ID50 HSV-1
Method: (§1) Assays were performed in cell culture systems to determine the concentrations of compounds that are effective in preventing several kinds of viral infections. Abbreviations:
(§2) HSV-1 (herpes simplex virus type 1, strain Schooler), HSV-2 (herpes simplex virus type 2, strain 186), VZV (varicella zoster virus, strain ELLEN), HCMC (human cytomegalovirus, strain AD 169). Cell Culture Assays:
(§3) HSV-1, HSV-2, HCMV and VZV antiviral assays: Virus was adsorbed to WI-38 cell culture monolayers in 5 well culture plates (Costar, Cambridge, Mass.) for 1 hour prior to addition of maintenance medium containing duplicate dilutions of the test compound. Inhibition of plaque development was evaluated on fixed and stained monolayers after 4 days incubation at 37° C. for HSV-1 and HSV-2, and after 5-7 days incubation at 37° C. for HCMV and VZV. ID50 values were determined from the drug concentration which conferred at least a 50% plaque reduction compared to virus controls.

[2] = tested on: HSV-2 (herpes simplex virus type 2, strain 186); test: HSV-2 antiviral plaque reduction assay in WI-38 cell culture; details: Human alphaherpesvirus 2, 96 h; HSV-2 strain 186; WI-38 monolayers; at least 50% plaque reduction vs virus controls; 4 days at 37° C.; read-out: ID50 HSV-2
Method: as §1, §2, §3

[3] = tested on: VZV (varicella zoster virus, strain ELLEN); test: VZV antiviral plaque reduction assay in WI-38 cell culture; details: Human alphaherpesvirus 3, WI-38 monolayers, at least 50% plaque reduction vs virus controls, 5-7 days at 37° C., read-out: ID50 VZV
Method: as §1, §2, §3

[4] = tested on: HCMV (human cytomegalovirus, strain AD 169); test: HCMV antiviral plaque reduction assay in WI-38 cell culture; details: Human betaherpesvirus 5; HCMV strain AD 169; WI-38 monolayers; at least 50% plaque reduction vs virus controls; 5-7 days at 37° C.; read-out: ID50 HCMV
Method: as §1, §2, §3

SMILES | IC50 [1] | IC50 [2] | IC50 [3] | IC50 [4]
O=c1[nH]c(=O)n([C@@H]2CO[C@H](CO)[C@@H](O)C2)cc1I [Example 4, [3S-(3α, 5β, 6α)]-5-Iodo-1-[tetrahydro-5-hydroxy-6-(hydroxymethyl) -2H-pyran-3-yl]-2,4 (1H, 3H) -pyrimidinedione] | 0.3 to 1.4 µM | 3 to 5.4 µM | 68 to 272 µM | > 272 µM
Cc1cn([C@@H]2CO[C@H](CO)[C@@H](O)C2)c(=O)[nH]c1=O [Example 5, [3S-(3α, 5β, 6α)]-5-Methyl-1-[tetrahydro-5-hydroxy-6-(hydroxymethyl)-2H-pyran-3-yl]-2,4 (1H, 3H)-pyrimidinedione] | 390 µM | > 390 µM | 39 to 390 µM | ≥ 390 µM
O=c1[nH]c(=O)n([C@@H]2CO[C@H](CO)[C@@H](O)C2)cc1/C=C/Br [Example 6] | 29 to 72 µM | > 288 µM | 5.7 to 14.5 µM | > 288 µM
Nc1ccn([C@@H]2CO[C@H](CO)[C@@H](O)C2)c(=O)n1 [Example 3, [3S-(3α, 5β, 6α)]-4-Amino-1-[tetrahydro-5-hydroxy-6-(hydroxymethyl) -2H-pyran-3-yl]-2-(1H) -pyrimidinone] | 0.4 to 0.8 µM | 0.4 to 0.8 µM | 4 to 8 µM | 2 µM
Nc1ncnc2c1ncn2[C@@H]1CO[C@H](CO)[C@@H](O)C1 [Example 2, [2R-(2α, 3β, 5α)]-5-(6-Amino-9H-purin-9yl)tetrahydro-3-hydroxy-2H-pyran-2-methanol] | 8 to 19 µM | 8 to 19 µM | 38 µM | 4 to 38 µM
Nc1nc2c(ncn2[C@@H]2CO[C@H](CO)[C@@H](O)C2)c(=O)[nH]1 [Example 1, [3S-(3α, 5β, 6α)]-2-Amino-1,9-dihydro-9-[tetrahydro-5-hydroxy-6-(hydroxymethyl)-2H-pyran-3-yl]-6H-purin-6-one] | 18 µM | 18 µM | 18 to 36 µM | 18 to 36 µM
